Experiments:
[1] = system: mononuclear phagocytes; experiment: ApoA-I mediated cellular phospholipid efflux (3H-choline labelled phospholipids); type: cell-based, Human; conditions: men and women, percent of basal unstimulated efflux
Procedure: Cellular Lipid Efflux. Human peripheral blood cells were isolated from lithium-heparin treated blood samples of adult, healthy volunteers. The peripheral blood mononuclear cell fraction was separated by density gradient centrifugation over Ficoll-Histopaque […] (Sigma). Cells positive for CD2, CD7, CD16, CD19 and CD56 were removed by appropriate magnetic beads (Dynal) leaving > 80% pure monocytes. Isolated monocytes were then cultured at a density of 1.5x10^5 cells/mL in polystyrene culture dishes (100x15mm Petri dish, Falcon) in a serum-free macrophage medium (Macrophage-SFM, Gibco Life Technologies) supplemented with 50ng/mL human recombinant M-CSF (R&D Systems). After an overnight incubation cells were cholesterol loaded for 24 hrs by addition of enzymatically modified LDL (E-LDL; 40 µg/ml), which was prepared as previously described (31). The incubation medium was further supplemented with ^14C-cholesterol (1.5 µCi/ml) and ^3H-choline (10µCi/ml) in order to label cellular cholesterol and choline containing phospholipids. In a subset of experiments cells were stimulated with 10 µM forskolin during the labeling period. After 24 hrs monocytes were washed and incubated for 17 hrs with or without 10 µg/ml ApoA-I (Sigma) in macrophage medium containing 0.1 % bovine serum albumin and 50ng/mL M-CSF. After incubation the media were removed and centrifuged at 800 x g to precipitate any detached cells. Cells were lysed in 0.2% SDS. Lipids were extracted by liquid extraction according to the method of Bligh and Dyer (13). ^3H and ^14C radioactivities of the total lipid extracts were measured by liquid scintillation counting in order to distinguish between ^3H labeled phospholipids and ^14C-cholesterol. Lipid efflux was calculated as percentage of disintegrations per minute (dpm) in medium divided by the sum of dpm recovered from medium and cells. The ApoA-I specific efflux is expressed a percent of basal unstimulated efflux observed in serum-free macrophage medium without ApoA-I.

[2] = system: mononuclear phagocytes; experiment: ApoA-I mediated cellular cholesterol efflux (14C-cholesterol, E-LDL loaded monocytes); type: cell-based, Human; conditions: men and women, percent of basal unstimulated efflux
Procedure: Cellular Lipid Efflux. Human peripheral blood cells were isolated from lithium-heparin treated blood samples of adult, healthy volunteers. The peripheral blood mononuclear cell fraction was separated by density gradient centrifugation over Ficoll-Histopaque […] (Sigma). Cells positive for CD2, CD7, CD16, CD19 and CD56 were removed by appropriate magnetic beads (Dynal) leaving > 80% pure monocytes. Isolated monocytes were then cultured at a density of 1.5x10^5 cells/mL in polystyrene culture dishes (100x15mm Petri dish, Falcon) in a serum-free macrophage medium (Macrophage-SFM, Gibco Life Technologies) supplemented with 50ng/mL human recombinant M-CSF (R&D Systems). After an overnight incubation cells were cholesterol loaded for 24 hrs by addition of enzymatically modified LDL (E-LDL; 40 µg/ml), which was prepared as previously described (31). […] Lipids were extracted by liquid extraction according to the method of Bligh and Dyer (13). ^3H and ^14C radioactivities of the total lipid extracts were measured by liquid scintillation counting in order to distinguish between ^3H labeled phospholipids and ^14C-cholesterol. Lipid efflux was calculated as percentage of disintegrations per minute (dpm) in medium divided by the sum of dpm recovered from medium and cells. […]

[3] = system: neutral sphingomyelinase; experiment: Ceramide formation from sphingomyelin; type: cell-based; conditions: result in words
[4] = system: IL-1β secretion; experiment: IL-1β processing and secretion; type: cell-based; conditions: result in words
[5] = system: human fibroblasts; experiment: Cell cycle arrest in fibroblasts; type: cell-based; conditions: result in words

ceramide formation from sphingomyelin mediated by neutral sphingomyelinase [3] | Caspase I mediated processing of pro-IL-1β [4] | Structure (SMILES) | Phospholipid efflux: ApoA-I [10 µg/ml]+ 24 h pretreatment with forskolin [10 µM] ([1]; 596A/A) | Phospholipid efflux: ApoA-I [10 µg/ml]+ 24 h pretreatment with forskolin [10 µM] ([1]; 2589G/G) | Phospholipid efflux: ApoA-I [10 µg/ml]+ 24 h pretreatment with forskolin [10 µM] ([1]; wt/wt 596G/G, 2589A/A) | Cholesterol efflux: ApoA-I [10 µg/ml]+ 24 h pretreatment with forskolin [10 µM] ([2]; 596A/A) | Cholesterol efflux: ApoA-I [10 µg/ml]+ 24 h pretreatment with forskolin [10 µM] ([2]; wt/wt 596G/G, 2589A/A) | release of mature IL-1β [4] | G2-phase cell cycle arrest [5]
 |  | C=C[C@@]1(C)CC(=O)[C@]2(O)[C@@]3(C)[C@@H](O)CCC(C)(C)[C@@H]3[C@H](O)[C@H](OC(C)=O)[C@@]2(C)O1 [forskolin] | 136.7 ± 12.8% | 124.5 ± 25.8% | 135.4 ± 20.2% | 126.7 ± 37.4% | 121.8 ± 16.4% |  | 
inhibits | inhibits | COc1ccc(Cl)cc1C(=O)NCCc1ccc(S(=O)(=O)NC(=O)NC2CCCCC2)cc1 [glyburide] |  |  |  |  |  | inhibits | releases human fibroblasts from G2-phase cell cycle arrest

Source: EP1136554A1, “ATP binding cassette transporter 1 (ABC1) gene polymorphisms and uses thereof for the diagnosis and treatment of lipid disorders, cardiovascular diseases and inflammatory diseases” (Bayer Aktiengesellschaft, priority 2000, dated 2001)
